Results reported in paper PMC4673153, “Discovery of benzo[e]pyridoindolones as kinase inhibitors that disrupt mitosis exit while erasing AMPK-Thr172 phosphorylation on the spindle” (Oncotarget, 2015).
Counter-ions that a name gives are not always drawn.

How the values were obtained:
Type in all cases: biochemical
[1] = target: T1, aurora B kinase (Homo sapiens, UniProt Q96GD4); assay: in vitro kinase assay, recombinant enzyme (MRC Dundee)
T1 construct: gene AURKB

[2] = target: T2, Chk1 (Homo sapiens, UniProt O14757); assay: as above
T2 construct: gene CHEK1
T2 sequence (O14757 1-476): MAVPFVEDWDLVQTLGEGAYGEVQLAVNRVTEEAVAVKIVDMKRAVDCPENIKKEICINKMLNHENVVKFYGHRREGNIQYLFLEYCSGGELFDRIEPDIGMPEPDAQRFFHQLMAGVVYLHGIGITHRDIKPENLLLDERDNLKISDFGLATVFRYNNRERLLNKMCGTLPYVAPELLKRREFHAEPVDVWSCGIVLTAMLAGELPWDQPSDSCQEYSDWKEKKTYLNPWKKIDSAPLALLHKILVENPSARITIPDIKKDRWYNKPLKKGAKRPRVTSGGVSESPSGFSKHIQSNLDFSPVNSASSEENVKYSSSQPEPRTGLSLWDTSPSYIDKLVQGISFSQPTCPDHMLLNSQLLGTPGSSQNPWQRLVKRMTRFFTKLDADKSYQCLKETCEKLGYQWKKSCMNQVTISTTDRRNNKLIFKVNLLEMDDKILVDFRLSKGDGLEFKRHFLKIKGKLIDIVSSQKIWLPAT

[3] = target: T3, Tak1 (Homo sapiens, UniProt O43318); assay: as above
T3 construct: gene MAP3K7
T3 sequence (O43318 1-606): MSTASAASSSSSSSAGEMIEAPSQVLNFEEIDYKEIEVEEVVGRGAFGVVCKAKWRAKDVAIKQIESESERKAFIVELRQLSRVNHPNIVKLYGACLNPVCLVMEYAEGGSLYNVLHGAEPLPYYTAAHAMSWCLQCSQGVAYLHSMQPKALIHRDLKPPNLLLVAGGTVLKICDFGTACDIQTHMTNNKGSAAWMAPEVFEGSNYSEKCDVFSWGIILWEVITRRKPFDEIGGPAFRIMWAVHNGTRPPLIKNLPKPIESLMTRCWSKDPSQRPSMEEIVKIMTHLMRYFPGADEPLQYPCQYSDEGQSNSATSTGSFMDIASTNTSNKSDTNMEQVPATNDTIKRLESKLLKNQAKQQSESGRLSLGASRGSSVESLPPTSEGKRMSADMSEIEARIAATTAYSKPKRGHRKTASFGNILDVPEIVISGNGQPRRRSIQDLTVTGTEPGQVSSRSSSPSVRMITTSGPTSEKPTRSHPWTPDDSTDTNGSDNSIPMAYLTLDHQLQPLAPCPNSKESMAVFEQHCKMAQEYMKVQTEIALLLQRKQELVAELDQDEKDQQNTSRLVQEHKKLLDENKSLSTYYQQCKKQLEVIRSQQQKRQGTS
T3 sequence (Q15750 1-504 partner): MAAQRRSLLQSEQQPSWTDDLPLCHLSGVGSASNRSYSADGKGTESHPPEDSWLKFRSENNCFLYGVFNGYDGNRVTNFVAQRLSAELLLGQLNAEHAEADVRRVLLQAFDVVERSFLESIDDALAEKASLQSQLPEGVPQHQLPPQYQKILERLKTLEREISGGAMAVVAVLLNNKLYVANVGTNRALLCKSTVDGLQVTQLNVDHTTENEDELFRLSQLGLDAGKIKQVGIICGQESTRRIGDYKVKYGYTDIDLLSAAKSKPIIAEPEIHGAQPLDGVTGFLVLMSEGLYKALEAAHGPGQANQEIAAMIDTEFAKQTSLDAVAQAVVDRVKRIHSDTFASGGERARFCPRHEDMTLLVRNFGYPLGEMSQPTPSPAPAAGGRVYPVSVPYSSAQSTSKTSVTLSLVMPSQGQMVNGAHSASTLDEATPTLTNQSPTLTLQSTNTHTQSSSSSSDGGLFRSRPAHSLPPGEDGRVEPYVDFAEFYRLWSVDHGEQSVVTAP

[4] = target: phosphorylase kinase; assay: as above
[5] = target: T4, CaMKKβ (Homo sapiens, UniProt Q96RR4); assay: kinase panel profiling at […], recombinant enzyme (MRC Dundee)
T4 construct: gene CAMKK2
T4 sequence (Q96RR4 2-588): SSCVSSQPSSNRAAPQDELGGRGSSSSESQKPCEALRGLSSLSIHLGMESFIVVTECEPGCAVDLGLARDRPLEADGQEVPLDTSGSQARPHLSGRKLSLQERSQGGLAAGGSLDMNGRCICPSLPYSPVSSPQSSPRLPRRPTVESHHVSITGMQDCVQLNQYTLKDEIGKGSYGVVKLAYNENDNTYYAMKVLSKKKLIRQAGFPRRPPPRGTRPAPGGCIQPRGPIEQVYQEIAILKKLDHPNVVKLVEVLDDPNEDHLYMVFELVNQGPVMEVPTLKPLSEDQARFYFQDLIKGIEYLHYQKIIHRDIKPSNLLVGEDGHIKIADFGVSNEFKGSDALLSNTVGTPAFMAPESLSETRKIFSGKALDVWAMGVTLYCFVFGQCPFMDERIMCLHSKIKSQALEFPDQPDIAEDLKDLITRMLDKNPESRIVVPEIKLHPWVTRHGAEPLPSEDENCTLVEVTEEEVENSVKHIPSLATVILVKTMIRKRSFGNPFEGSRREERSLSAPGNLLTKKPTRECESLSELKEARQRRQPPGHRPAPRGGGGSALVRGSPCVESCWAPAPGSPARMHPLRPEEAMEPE

[6] = target: Melk (Homo sapiens, UniProt Q14680); assay: in vitro kinase assay, recombinant enzyme (MRC Dundee)
Chain of Melk (Q14680 whole entry): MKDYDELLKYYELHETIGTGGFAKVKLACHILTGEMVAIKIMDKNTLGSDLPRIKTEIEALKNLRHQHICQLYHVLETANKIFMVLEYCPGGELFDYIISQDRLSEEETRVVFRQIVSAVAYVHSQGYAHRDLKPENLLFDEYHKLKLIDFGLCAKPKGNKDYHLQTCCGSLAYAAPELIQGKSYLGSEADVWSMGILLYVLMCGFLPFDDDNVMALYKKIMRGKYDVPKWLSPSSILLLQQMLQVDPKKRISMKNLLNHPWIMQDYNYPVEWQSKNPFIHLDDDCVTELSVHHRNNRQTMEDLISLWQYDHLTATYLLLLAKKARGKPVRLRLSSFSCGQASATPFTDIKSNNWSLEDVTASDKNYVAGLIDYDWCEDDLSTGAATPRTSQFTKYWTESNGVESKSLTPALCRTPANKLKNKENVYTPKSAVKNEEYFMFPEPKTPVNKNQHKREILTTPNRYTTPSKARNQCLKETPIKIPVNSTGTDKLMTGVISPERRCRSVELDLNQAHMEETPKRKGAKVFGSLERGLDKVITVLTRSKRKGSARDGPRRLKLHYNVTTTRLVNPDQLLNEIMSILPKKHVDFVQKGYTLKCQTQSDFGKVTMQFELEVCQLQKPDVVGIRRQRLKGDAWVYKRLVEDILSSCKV

[7] = target: T5, ARK5/Nuak1 (Homo sapiens, UniProt O60285); assay: as above
T5 sequence (O60285 1-661): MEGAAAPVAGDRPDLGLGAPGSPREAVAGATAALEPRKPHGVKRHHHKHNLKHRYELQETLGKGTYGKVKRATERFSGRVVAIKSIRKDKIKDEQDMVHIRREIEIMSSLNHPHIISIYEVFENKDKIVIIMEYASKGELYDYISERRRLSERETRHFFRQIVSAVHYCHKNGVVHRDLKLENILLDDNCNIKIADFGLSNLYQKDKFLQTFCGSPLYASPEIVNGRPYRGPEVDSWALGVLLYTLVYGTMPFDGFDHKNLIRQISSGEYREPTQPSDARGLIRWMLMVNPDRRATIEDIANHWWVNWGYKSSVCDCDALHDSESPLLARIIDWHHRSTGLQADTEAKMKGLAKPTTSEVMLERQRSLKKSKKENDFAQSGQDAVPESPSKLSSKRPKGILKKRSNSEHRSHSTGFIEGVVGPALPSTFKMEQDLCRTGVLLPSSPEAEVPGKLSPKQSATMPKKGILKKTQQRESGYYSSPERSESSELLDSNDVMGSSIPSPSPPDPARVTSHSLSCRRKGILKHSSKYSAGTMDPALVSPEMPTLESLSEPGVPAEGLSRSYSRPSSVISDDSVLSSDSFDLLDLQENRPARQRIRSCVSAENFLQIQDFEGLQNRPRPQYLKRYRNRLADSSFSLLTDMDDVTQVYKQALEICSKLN

[8] = target: T6, Chk2 (Homo sapiens, UniProt O96017); assay: as above
T6 construct: gene CHEK2
T6 sequence (O96017 whole entry): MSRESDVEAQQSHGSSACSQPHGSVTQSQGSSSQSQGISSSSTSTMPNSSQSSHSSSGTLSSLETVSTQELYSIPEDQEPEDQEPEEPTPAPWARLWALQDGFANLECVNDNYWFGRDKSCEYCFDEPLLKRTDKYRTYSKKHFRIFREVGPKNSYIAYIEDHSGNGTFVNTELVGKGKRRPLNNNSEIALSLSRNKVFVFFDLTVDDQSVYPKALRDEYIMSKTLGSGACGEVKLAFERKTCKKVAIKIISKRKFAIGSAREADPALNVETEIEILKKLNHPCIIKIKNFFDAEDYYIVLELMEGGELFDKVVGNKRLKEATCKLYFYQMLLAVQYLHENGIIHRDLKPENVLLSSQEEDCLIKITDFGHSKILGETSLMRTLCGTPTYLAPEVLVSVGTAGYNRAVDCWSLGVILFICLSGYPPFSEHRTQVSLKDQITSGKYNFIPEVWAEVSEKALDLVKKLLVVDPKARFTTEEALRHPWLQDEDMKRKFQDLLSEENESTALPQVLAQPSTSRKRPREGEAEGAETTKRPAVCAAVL

[9] = target: T7, Flt1/V-EGFR1 (Homo sapiens, UniProt P17948); assay: as above
T7 sequence (P17948 781-1338 limits assumed): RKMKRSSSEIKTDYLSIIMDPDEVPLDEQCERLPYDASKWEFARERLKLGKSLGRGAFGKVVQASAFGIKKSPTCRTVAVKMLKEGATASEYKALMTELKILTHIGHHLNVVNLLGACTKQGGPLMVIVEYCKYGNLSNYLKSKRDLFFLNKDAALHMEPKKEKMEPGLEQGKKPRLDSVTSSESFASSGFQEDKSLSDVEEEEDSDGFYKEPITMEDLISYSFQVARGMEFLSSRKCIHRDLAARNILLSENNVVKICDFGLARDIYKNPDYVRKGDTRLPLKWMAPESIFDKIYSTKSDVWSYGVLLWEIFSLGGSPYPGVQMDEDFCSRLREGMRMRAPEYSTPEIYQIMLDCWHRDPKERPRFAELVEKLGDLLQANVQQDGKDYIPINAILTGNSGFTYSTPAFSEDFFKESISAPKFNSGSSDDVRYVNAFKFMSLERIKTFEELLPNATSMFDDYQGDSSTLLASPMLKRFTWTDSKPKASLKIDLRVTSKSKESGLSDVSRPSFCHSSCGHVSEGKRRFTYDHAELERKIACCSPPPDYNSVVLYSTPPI

[10] = target: Sik2 (Homo sapiens, UniProt Q9H0K1); assay: as above
Chain of Sik2 (Q9H0K1 whole entry): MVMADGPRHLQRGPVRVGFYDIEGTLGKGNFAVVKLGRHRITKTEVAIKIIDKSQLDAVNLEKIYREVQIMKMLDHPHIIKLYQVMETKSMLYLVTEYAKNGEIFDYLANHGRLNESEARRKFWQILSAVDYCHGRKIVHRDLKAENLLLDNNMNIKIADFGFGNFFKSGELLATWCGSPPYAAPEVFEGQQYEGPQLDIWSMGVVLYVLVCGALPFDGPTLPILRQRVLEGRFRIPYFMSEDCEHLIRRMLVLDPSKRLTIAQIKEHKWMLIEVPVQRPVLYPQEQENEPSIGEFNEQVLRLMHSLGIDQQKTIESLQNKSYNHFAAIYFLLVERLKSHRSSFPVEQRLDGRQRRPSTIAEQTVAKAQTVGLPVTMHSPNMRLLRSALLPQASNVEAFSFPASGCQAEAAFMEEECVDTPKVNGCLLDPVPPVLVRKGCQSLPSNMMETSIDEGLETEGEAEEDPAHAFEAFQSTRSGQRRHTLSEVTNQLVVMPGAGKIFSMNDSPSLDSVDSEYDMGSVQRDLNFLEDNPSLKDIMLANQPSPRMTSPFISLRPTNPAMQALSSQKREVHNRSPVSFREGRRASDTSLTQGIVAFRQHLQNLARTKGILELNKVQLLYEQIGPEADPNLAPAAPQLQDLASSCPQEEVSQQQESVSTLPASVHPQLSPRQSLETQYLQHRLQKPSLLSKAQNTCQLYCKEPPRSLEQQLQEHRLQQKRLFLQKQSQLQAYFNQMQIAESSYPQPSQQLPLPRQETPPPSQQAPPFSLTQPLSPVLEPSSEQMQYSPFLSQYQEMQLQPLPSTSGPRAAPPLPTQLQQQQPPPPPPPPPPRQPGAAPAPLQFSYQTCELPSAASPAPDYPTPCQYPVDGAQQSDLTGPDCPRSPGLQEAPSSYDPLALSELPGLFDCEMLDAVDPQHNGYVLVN

T1 sequence (Q96GD4 whole entry): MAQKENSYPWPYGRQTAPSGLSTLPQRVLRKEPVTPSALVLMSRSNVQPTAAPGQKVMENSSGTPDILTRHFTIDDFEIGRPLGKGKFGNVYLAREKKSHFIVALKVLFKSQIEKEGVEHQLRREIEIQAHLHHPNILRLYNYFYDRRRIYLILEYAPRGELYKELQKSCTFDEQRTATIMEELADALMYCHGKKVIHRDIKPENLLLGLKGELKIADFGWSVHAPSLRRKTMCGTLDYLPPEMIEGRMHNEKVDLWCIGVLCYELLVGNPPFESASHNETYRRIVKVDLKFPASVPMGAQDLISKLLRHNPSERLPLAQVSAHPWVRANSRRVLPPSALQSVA

Compound `Cc1c[nH]c(=O)c2c1[nH]c1ccc3cc(OCCN4CCCCC4)ccc3c12` [C5M, 3-(2-(Piperidin-1-yl)ethoxy)-8-methyl-7H, 10H-benzo[e]pyrido(4,3-b)indol-11-one maleate] has an IC50 [1] of 118 nM, an IC50 [2] of 13.6 nM and an IC50 [3] of 6 nM. For the same compound, the IC50 [4] was 18.5 nM, the “kinase panel profiling at 250 nM, recombinant enzyme (MRC Dundee)” value [5] was “Among the fifteen best targets, we noted the presence of several AMPK-related kinases” and the IC50 [6] was 13.3 nM. The IC50 [7] was 4.8 nM, the IC50 [8] was 13.6 nM and the IC50 [9] was 37 nM. The IC50 [10] was 12.4 nM.
